Assay results taken from patent publication US10618916B2, “Heterocyclic compounds as immunomodulators” (Incyte Corporation, priority 2018, dated 2020).

Assays:
[1] = test system: U2OS/PD-L1 cells and Jurkat-PD-1-SHP cells; assay: Src homology region 2 domain-containing phosphatase (SHP) assay; type: cell-based; conditions: Homo sapiens, U2OS
Description: Example B. Src Homology Region 2 Domain-Containing Phosphatase (SHP) Assay
U2OS/PD-L1 cells (DiscoveRx Corporation) were maintained in McCoy's 5A medium with addition of 10% FBS, 0.25 μg/ml Puromycin. After removing the culture media, the cell medium was replaced with assay medium (RPMI1640 medium with 1% FBS). The U2OS/PD-L1 cells were then added in 384-well black clear bottom assay plate (CELLCOAT® Tissue Culture Plates, Greiner Bio-One) at 5000 cells per well in 20 μL assay medium. Test compounds were prepared by serial dilution in DMSO and 125 nL compound were first transferred to the 384 REMP plate well (Thermofisher) by ECHO liquid handler (Labcyte) followed with addition of 27.5 μL assay medium. 5 μL/well compounds in the assay medium were transferred to the cell plate with 0.05% DMSO in the final assay at […]. Jurkat-PD-1-SHP cells (DiscoveRx Corporation) were cultured in RPMI1640 medium supplemented with 10% FBS, 250 μg/ml Hygromycin B, 500 μg/ml G418. After the replacement of culture media with assay medium, 5,000 Jurkat-PD-1-SHP cells in 20 μL were dispensed into each well. The assay plate was incubated at 37° C., 5% CO2 for 2 hours before 2.5 μL PathHunter reagent 1 (DiscoveRx Corporation) were added to each well. The assay plate was shaken for 1 min at 350 rpm in the dark followed with addition of 10 μL PathHunter reagent 2 (DiscoveRx Corporation). Chemiluminescent signal was recorded with TopCount reader (Perkin Elmer) after incubation at room temperature for 1 hour. Wells with DMSO were served as the positive controls and wells containing no cells were used as negative controls. IC50 determination was performed by fitting the curve of percentage of control activity versus the log of the compound concentration using the GraphPad Prism 6.0 software.

[2] = molecular target: PD-1/PD-L1 protein/protein interaction (recombinant human PD-L1 and human PD-1) (Homo sapiens (Human), UniProt Q9NZQ7); assay: Homogeneous Time-Resolved Fluorescence (HTRF) PD-1/PD-L1 binding assay
Sequence of PD-1/PD-L1 protein/protein interaction (recombinant human PD-L1 and human PD-1) (Q9NZQ7 19-238): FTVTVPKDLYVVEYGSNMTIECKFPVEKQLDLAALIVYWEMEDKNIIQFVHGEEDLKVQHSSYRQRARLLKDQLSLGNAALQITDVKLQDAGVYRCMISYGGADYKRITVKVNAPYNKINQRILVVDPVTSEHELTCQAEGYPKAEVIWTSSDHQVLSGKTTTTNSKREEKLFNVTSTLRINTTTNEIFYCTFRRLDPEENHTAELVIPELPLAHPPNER
How it was run: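 Human PD-L1 (19-238, C-His; 10 nM final) and PD-1 (25-167, C-Fc; 3 nM final) preincubated 40 min with inhibitor in PBS pH 7.4, 0.05% Tween-20, 0.1% BSA, 1% DMSO, 25 °C. Eu-anti-human IgG (1 nM) and anti-His-APC (20 nM) added for 60 min; 665/620 nm ratio; IC50 from percent-control curves.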

PD-L1 = PD-L1 (Homo sapiens (Human), UniProt Q9NZQ7); assay: PD-L1 whole blood internalization assay; type: cell-based; conditions: 24 HR, PD-L1 expression on CD14+ cells, human interferon γ
Sequence of PD-L1 (Q9NZQ7 19-290): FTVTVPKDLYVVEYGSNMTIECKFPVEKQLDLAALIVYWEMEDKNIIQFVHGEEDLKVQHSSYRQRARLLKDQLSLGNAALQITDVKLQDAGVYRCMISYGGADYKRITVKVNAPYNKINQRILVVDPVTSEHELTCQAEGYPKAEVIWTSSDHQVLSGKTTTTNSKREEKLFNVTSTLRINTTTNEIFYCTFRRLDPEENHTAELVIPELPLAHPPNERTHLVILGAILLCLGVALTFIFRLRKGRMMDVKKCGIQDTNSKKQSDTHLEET
Description: Example D. PD-L1 Whole Blood Internalization Assay
To determine PD-L1 internalization in human whole blood, normal human blood (Biological Specialty Corp, Colmar. Pa.) was incubated in the presence or absence of a concentration range of test compounds and 1 ng/ml human interferon γ (R&D Systems Inc. Minn. […] Blood was then stained with PD-L1 (MIH1, eBioscience; or BD Biosciences San Jose, Calif.), CD14 (Life Technologies, Carlsbad, Calif.) for 30 minutes in the dark at room temperature. Whole Blood/red cells were lysed/fixed (lysis buffer BD Biosciences) for 5 minutes at 37° C. in the dark and then centrifuged at 1600 RPM for 5 minutes. Cells were resuspended in Stain Buffer (BD Bioscience, San Jose, Calif.) and transferred into 96 well round bottom plates (Corning). Cells were gated on CD14+(BD Biosciences) and PD-L1 expression determined by mean fluorescence intensity (MFI) (BD LSRFortessa™ X-20). IC50 determination was performed by fitting the curve of compound percent inhibition versus the log of the compound concentration using the GraphPad Prism 7.0 software.

[3] = test system: PD-L1 aAPC/CHO-K1 cells and Jurkat-PD-1-NFAT effector cells; assay: Nuclear factor of activated T-cells (NFAT) assay; type: cell-based; conditions: Cricetulus griseus, CHO-K1
How it was run: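 CHO-K1 cells expressing PD-L1 aAPC were co-cultured with Jurkat-PD-1-NFAT effector cells in RPMI 1640 with 1% FBS and compound (0.4% DMSO; top concentration 2 μM) for 24 h at 37 °C. Bio-Glo luminescence was read, fold induction normalised to DMSO wells, and EC50 fitted from percent of control compound activity.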

| Structure (SMILES) | IC50 [1] | IC50 [2] | IC50 (PD-L1) | EC50 [3] |
| --- | --- | --- | --- | --- |
| Cn1c(C(=O)Nc2cccc(-c3cccc(NC(=O)c4nc5c(n4C)CCN(CCC46CCC(C(=O)O)(CC4)C6)C5)c3Cl)c2Cl)nc2c1CCNC2 [Example 1, 4-(2-(2-((2,2′-dichloro-3′-(1-methyl-4,5,6,7-tetrahydro-1H-imidazo[4,5-c]pyridine-2-carboxamido)-[1,1′-biphenyl]-3-yl)carbamoyl)-1-methyl-1,4,6,7-tetrahydro-5H-imidazo[4,5-c]pyridin-5-yl)ethyl)bicyclo[2.2.1]heptane-1-carboxylic Acid] | ≤ 10 nM | ≤ 5 nM | ≤ 10 nM | 10 to 100 nM |
| Cc1c(NC(=O)c2nc3c(n2C)CCN(C[C@@H](C)O)C3)cccc1-c1cccc(NC(=O)c2nc3c(n2C)CCN(CCC24CCC(C(=O)O)(CC2)C4)C3)c1Cl [Example 31, (R)-4-(2-(2-((2-chloro-3′-(5-(2-hydroxypropyl)-1-methyl-4,5,6,7-tetrahydro-1H-imidazo[4,5-c]pyridine-2-carboxamido)-2′-methyl-[1,1′-biphenyl]-3-yl)carbamoyl)-1-methyl-1,4,6,7-tetrahydro-5H-imidazo[4,5-c]pyridin-5-yl)ethyl)bicyclo[2.2.1]heptane-1-carboxylic Acid] | ≤ 10 nM | ≤ 5 nM | 10 to 100 nM | 10 to 100 nM |
| Cn1c(C(=O)Nc2cccc(-c3cccc(NC(=O)c4nc5c(n4C)CCN(C(CO)CO)C5)c3Cl)c2Cl)nc2c1CCN(CCC13CCC(C(=O)O)(CC1)C3)C2 [Example 10, 4-(2-(2-((2,2′-dichloro-3′-(5-(1,3-dihydroxypropan-2-yl)-1-methyl-4,5,6,7-tetrahydro-1H-imidazo[4,5-c]pyridine-2-carboxamido)-[1,1′-biphenyl]-3-yl)carbamoyl)-1-methyl-1,4,6,7-tetrahydro-5H-imidazo[4,5-c]pyridin-5-yl)ethyl)bicyclo[2.2.1]heptane-1-carboxylic acid] | ≤ 10 nM | ≤ 5 nM | 10 to 100 nM | 10 to 100 nM |
| Cc1c(NC(=O)c2nc3c(n2C)CCN(CCC24CCC(C(=O)O)(CC2)C4)C3)cccc1-c1cccc(NC(=O)c2nc3c(n2C)CCN(CCO)C3)c1Cl [Example 43, 4-(2-(2-((2′-chloro-3′-(5-(2-hydroxyethyl)-1-methyl-4,5,6,7-tetrahydro-1H-imidazo[4,5-c]pyridine-2-carboxamido)-2-methyl-[1,1′-biphenyl]-3-yl)carbamoyl)-1-methyl-1,4,6,7-tetrahydro-5H-imidazo[4,5-c]pyridin-5-yl)ethyl)bicyclo[2.2.1]heptane-1-carboxylic acid] | ≤ 10 nM | ≤ 5 nM | 10 to 100 nM | 10 to 100 nM |
| Cc1c(NC(=O)c2nc3c(n2C)CCN(C2CCN(C(N)=O)CC2)C3)cccc1-c1cccc(NC(=O)c2nc3c(n2C)CCN(CCC24CCC(C(=O)O)(CC2)C4)C3)c1Cl [Example 30, 4-(2-(2-((3′-(5-(1-carbamoylpiperidin-4-yl)-1-methyl-4,5,6,7-tetrahydro-1H-imidazo[4,5-c]pyridine-2-carboxamido)-2-chloro-2′-methyl-[1,1′-biphenyl]-3-yl)carbamoyl)-1-methyl-1,4,6,7-tetrahydro-5H-imidazo[4,5-c]pyridin-5-yl)ethyl)bicyclo[2.2.1]heptane-1-carboxylic acid] | ≤ 10 nM | ≤ 5 nM | 10 to 100 nM | 10 to 100 nM |

The next lines start with results.

| IC50 [1] | IC50 [2] | IC50 (PD-L1) | Structure (SMILES) | EC50 [3] |
| --- | --- | --- | --- | --- |
| ≤ 10 nM | ≤ 5 nM | 10 to 100 nM | Cn1c(C(=O)Nc2cccc(-c3cccc(NC(=O)c4nc5c(n4C)CCN(CCC46CCC(C(=O)O)(CC4)C6)C5)c3Cl)c2Cl)nc2c1CCN(CCCC(=O)O)C2 [Example 20, 4-(2-(2-((3′-(5-(3-carboxypropyl)-1-methyl-4,5,6,7-tetrahydro-1H-imidazo[4,5-c]pyridine-2-carboxamido)-2,2′-dichloro-[1,1′-biphenyl]-3-yl)carbamoyl)-1-methyl-1,4,6,7-tetrahydro-5H-imidazo[4,5-c]pyridin-5-yl)ethyl)bicyclo[2.2.1]heptane-1-carboxylic acid] | 10 to 100 nM |
| ≤ 10 nM | ≤ 5 nM | 10 to 100 nM | Cc1c(NC(=O)c2nc3c(n2C)CCN(CCc2ccc(C(=O)O)cc2)C3)cccc1-c1cccc(NC(=O)c2nc3c(n2C)CCN(CCC24CCC(C(=O)O)(CC2)C4)C3)c1Cl [Example 36, 4-(2-(2-((3′-(5-(4-carboxyphenethyl)-1-methyl-4,5,6,7-tetrahydro-1H-imidazo[4,5-c]pyridine-2-carboxamido)-2-chloro-2′-methyl-[1,1′-biphenyl]-3-yl)carbamoyl)-1-methyl-1,4,6,7-tetrahydro-5H-imidazo[4,5-c]pyridin-5-yl)ethyl)bicyclo[2.2.1]heptane-1-carboxylic acid] | 10 to 100 nM |
| ≤ 10 nM | ≤ 5 nM | 10 to 100 nM | Cc1c(NC(=O)c2nc3c(n2C)CCN(C2CCC(O)CC2)C3)cccc1-c1cccc(NC(=O)c2nc3c(n2C)CCN(CCC24CCC(C(=O)O)(CC2)C4)C3)c1Cl (single isomer, unassigned) [61 (compound 1), 4-(2-(2-((2-chloro-3′-(5-(4-hydroxycyclohexyl)-1-methyl-4,5,6,7-tetrahydro-1H-imidazo[4,5-c]pyridine-2-carboxamido)-2′-methyl-[1,1′-biphenyl]-3-yl)carbamoyl)-1-methyl-1,4,6,7-tetrahydro-5H-imidazo[4,5-c]pyridin-5-yl)ethyl)bicyclo[2.2.1]heptane-1-carboxylic acid] | 10 to 100 nM |
| ≤ 10 nM | ≤ 5 nM | 10 to 100 nM | Cc1c(NC(=O)c2nc3c(n2C)CCNC3)cccc1-c1cccc(NC(=O)c2nc3c(n2C)CCN(CCC24CCC(C(=O)O)(CC2)C4)C3)c1Cl [Example 27, 4-(2-(2-((2-chloro-2′-methyl-3′-(1-methyl-4,5,6,7-tetrahydro-1H-imidazo[4,5-c]pyridine-2-carboxamido)-[1,1′-biphenyl]-3-yl)carbamoyl)-1-methyl-1,4,6,7-tetrahydro-5H-imidazo[4,5-c]pyridin-5-yl)ethyl)bicyclo[2.2.1]heptane-1-carboxylic Acid] | 10 to 100 nM |
| ≤ 10 nM | ≤ 5 nM | 10 to 100 nM | Cn1c(C(=O)Nc2cccc(-c3cccc(NC(=O)c4nc5c(n4C)CCN(CC46CC(C(=O)O)(C4)C6)C5)c3Cl)c2Cl)nc2c1CCN(CCC13CCC(C(=O)O)(CC1)C3)C2 [Example 24, 3-((2-((3′-(5-(2-(4-carboxybicyclo[2.2.1]heptan-1-yl)ethyl)-1-methyl-4,5,6,7-tetrahydro-1H-imidazo[4,5-c]pyridine-2-carboxamido)-2,2′-dichloro-[1,1′-biphenyl]-3-yl)carbamoyl)-1-methyl-1,4,6,7-tetrahydro-5H-imidazo[4,5-c]pyridin-5-yl)methyl)bicyclo[1.1.1]-pentane-1-carboxylic acid] | 10 to 100 nM |
| ≤ 10 nM | ≤ 5 nM | 100 to 500 nM | Cn1c(C(=O)Nc2cccc(-c3cccc(NC(=O)c4nc5c(n4C)CCN(C4CCN(S(N)(=O)=O)CC4)C5)c3Cl)c2Cl)nc2c1CCN(CCC13CCC(C(=O)O)(CC1)C3)C2 [Example 8, 4-(2-(2-((2,2′-dichloro-3′-(1-methyl-5-(1-sulfamoylpiperidin-4-yl)-4,5,6,7-tetrahydro-1H-imidazo[4,5-c]pyridine-2-carboxamido)-[1,1′-biphenyl]-3-yl)carbamoyl)-1-methyl-1,4,6,7-tetrahydro-5H-imidazo[4,5-c]pyridin-5-yl)ethyl)bicyclo[2.2.1]heptane-1-carboxylic acid] | 10 to 100 nM |
